# Measurements from US20210386367A1, “DEVICES AND SYSTEMS FOR GASTROINTESTINAL MICROBIOME DETECTION AND MANIPULATION” (Progenity, Inc., priority 2018, published 2021).
# Like-named read-outs stand apart in the source and are kept apart here.
# Tests used:
# Assay in all cases: Broth microdilution MIC, 50 clinical isolates
# Assay type in all cases: cell-based
# Proteus mirabilis = test system: Proteus mirabilis
# Method in brief: (§1)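 CLSI broth microdilution in cation-adjusted Mueller Hinton broth, with 3% lysed horse blood added for streptococci, which were incubated with CO2.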
# Enterobacter aerogenes = test system: Enterobacter aerogenes
# Method in brief: as §1
# Pseudomonas aeruginosa = test system: Pseudomonas aeruginosa
# Method in brief: as §1
compound,measurement,setting,value
COc1c(N2C[C@@H]3CCCN[C@@H]3C2)c(F)cc2c(=O)c(C(=O)O)cn(C3CC3)c12 [moxifloxacin],Mode,Proteus mirabilis,0.25 µg/mL
same,Cumulative percentage of isolates inhibited at MIC,Proteus mirabilis; 0.5 μg/mL,60.0%
same,Number of test isolates at MIC,Proteus mirabilis; 0.5 μg/mL,9
same,Cumulative percentage of isolates inhibited at MIC,Proteus mirabilis; 1 μg/mL,64.0%
same,Number of test isolates at MIC,Proteus mirabilis; 1 μg/mL,2
same,Cumulative percentage of isolates inhibited at MIC,Proteus mirabilis; 4 μg/mL,66.0%
same,Number of test isolates at MIC,Proteus mirabilis; 4 μg/mL,1
same,Cumulative percentage of isolates inhibited at MIC,Proteus mirabilis; 8 μg/mL,68.0%
same,Number of test isolates at MIC,Proteus mirabilis; 8 μg/mL,1
same,Cumulative percentage of isolates inhibited at MIC,Proteus mirabilis; 16 μg/mL,72.0%
same,Number of test isolates at MIC,Proteus mirabilis; 16 μg/mL,2
same,Cumulative percentage of isolates inhibited at MIC,Proteus mirabilis; 32 μg/mL,82.0%
same,Number of test isolates at MIC,Proteus mirabilis; 32 μg/mL,5
same,Cumulative percentage of isolates inhibited at MIC,Proteus mirabilis; 64 μg/mL,90.0%
same,Number of test isolates at MIC,Proteus mirabilis; 64 μg/mL,4
same,Cumulative percentage of isolates inhibited at MIC,Proteus mirabilis; 128 μg/mL,98.0%
same,Number of test isolates at MIC,Proteus mirabilis; 128 μg/mL,4
same,Cumulative percentage of isolates inhibited at MIC,Proteus mirabilis; >128 μg/mL,100.0%
same,Number of test isolates at MIC,Proteus mirabilis; >128 μg/mL,1
same,MIC50,"Proteus mirabilis; Proteus mirabilis, read-out: MIC50",0.5 mg/L
same,MIC90,"Proteus mirabilis; Proteus mirabilis, read-out: MIC90",64 mg/L
same,MIC range,Enterobacter aerogenes,0.03 to 0.5 mg/L
same,Mode,Enterobacter aerogenes,0.12 µg/mL
same,Cumulative percentage of isolates inhibited at MIC,Enterobacter aerogenes; 0.03 μg/mL,10.0%
same,Number of test isolates at MIC,Enterobacter aerogenes; 0.03 μg/mL,5
same,Cumulative percentage of isolates inhibited at MIC,Enterobacter aerogenes; 0.06 μg/mL,50.0%
same,Number of test isolates at MIC,Enterobacter aerogenes; 0.06 μg/mL,20
same,Cumulative percentage of isolates inhibited at MIC,Enterobacter aerogenes; 0.5 μg/mL,100.0%
same,Number of test isolates at MIC,Enterobacter aerogenes; 0.5 μg/mL,2
same,MIC50,"Enterobacter aerogenes; Klebsiella aerogenes, read-out: MIC50",0.06 mg/L
same,MIC90,"Enterobacter aerogenes; Klebsiella aerogenes, read-out: MIC90",0.12 mg/L
same,MIC range,Pseudomonas aeruginosa,0.12-32 ^ μg/mL
same,Mode,Pseudomonas aeruginosa,1 µg/mL
same,Cumulative percentage of isolates inhibited at MIC,Pseudomonas aeruginosa; 0.5 μg/mL,20.0%
same,Number of test isolates at MIC,Pseudomonas aeruginosa; 0.5 μg/mL,8
same,Cumulative percentage of isolates inhibited at MIC,Pseudomonas aeruginosa; 1 μg/mL,58.0%
same,Number of test isolates at MIC,Pseudomonas aeruginosa; 1 μg/mL,19
same,Cumulative percentage of isolates inhibited at MIC,Pseudomonas aeruginosa; 2 μg/mL,60.0%
same,Number of test isolates at MIC,Pseudomonas aeruginosa; 2 μg/mL,1
same,Cumulative percentage of isolates inhibited at MIC,Pseudomonas aeruginosa; 4 μg/mL,66.0%
same,Number of test isolates at MIC,Pseudomonas aeruginosa; 4 μg/mL,3
same,Cumulative percentage of isolates inhibited at MIC,Pseudomonas aeruginosa; 8 μg/mL,78.0%
same,Number of test isolates at MIC,Pseudomonas aeruginosa; 8 μg/mL,6
same,Cumulative percentage of isolates inhibited at MIC,Pseudomonas aeruginosa; 16 μg/mL,90.0%
same,Number of test isolates at MIC,Pseudomonas aeruginosa; 16 μg/mL,6
same,Cumulative percentage of isolates inhibited at MIC,Pseudomonas aeruginosa; 32 μg/mL,100.0%
same,Number of test isolates at MIC,Pseudomonas aeruginosa; 32 μg/mL,5
same,MIC50,"Pseudomonas aeruginosa; Pseudomonas aeruginosa, read-out: MIC50",1 mg/L
same,MIC90,"Pseudomonas aeruginosa; Pseudomonas aeruginosa, read-out: MIC90",16 mg/L
same,Number of test isolates at MIC,Pseudomonas aeruginosa; […],1
piperacillin/tazobactam [piperacillin-tazobactam],% S,Proteus mirabilis,100%
same,MIC50,Proteus mirabilis,0.25 mg/L
same,MIC90,Proteus mirabilis,1 mg/L
same,MIC range,Proteus mirabilis,≤0.12 to 2 mg/L
same,Mode,Proteus mirabilis,0.25 µg/mL
same,Cumulative percentage of isolates inhibited at MIC,Proteus mirabilis; 0.5 μg/mL,82.0%
same,Number of test isolates at MIC,Proteus mirabilis; 0.5 μg/mL,16
same,Cumulative percentage of isolates inhibited at MIC,Proteus mirabilis; 1 μg/mL,96.0%
same,Number of test isolates at MIC,Proteus mirabilis; 1 μg/mL,7
same,Cumulative percentage of isolates inhibited at MIC,Proteus mirabilis; 2 μg/mL,100.0%
same,Number of test isolates at MIC,Proteus mirabilis; 2 μg/mL,2
same,Cumulative percentage of isolates inhibited at MIC,Proteus mirabilis; […],50.0%
same,Number of test isolates at MIC,Proteus mirabilis; […],22
same,Cumulative percentage of isolates inhibited at MIC,Proteus mirabilis; ≤[…],6.0%
same,Number of test isolates at MIC,Proteus mirabilis; ≤[…],3
same,% I,Enterobacter aerogenes,16%
same,% R,Enterobacter aerogenes,8%
same,% S,Enterobacter aerogenes,76%
same,MIC50,Enterobacter aerogenes,4 mg/L
same,MIC90,Enterobacter aerogenes,64 mg/L
same,Mode,Enterobacter aerogenes,2 µg/mL
same,Cumulative percentage of isolates inhibited at MIC,Enterobacter aerogenes; 1 μg/mL,4.0%
same,Number of test isolates at MIC,Enterobacter aerogenes; 1 μg/mL,2
same,Cumulative percentage of isolates inhibited at MIC,Enterobacter aerogenes; 2 μg/mL,38.0%
same,Number of test isolates at MIC,Enterobacter aerogenes; 2 μg/mL,17
same,Cumulative percentage of isolates inhibited at MIC,Enterobacter aerogenes; 4 μg/mL,62.0%
same,Number of test isolates at MIC,Enterobacter aerogenes; 4 μg/mL,12
same,Cumulative percentage of isolates inhibited at MIC,Enterobacter aerogenes; 8 μg/mL,74.0%
same,Number of test isolates at MIC,Enterobacter aerogenes; 8 μg/mL,6
same,Cumulative percentage of isolates inhibited at MIC,Enterobacter aerogenes; 16 μg/mL,76.0%
same,Number of test isolates at MIC,Enterobacter aerogenes; 16 μg/mL,1
same,Cumulative percentage of isolates inhibited at MIC,Enterobacter aerogenes; 32 μg/mL,88.0%
same,Number of test isolates at MIC,Enterobacter aerogenes; 32 μg/mL,6
same,Cumulative percentage of isolates inhibited at MIC,Enterobacter aerogenes; 64 μg/mL,92.0%
same,Number of test isolates at MIC,Enterobacter aerogenes; 64 μg/mL,2
same,Cumulative percentage of isolates inhibited at MIC,Enterobacter aerogenes; 128 μg/mL,98.0%
same,Number of test isolates at MIC,Enterobacter aerogenes; 128 μg/mL,3
same,Cumulative percentage of isolates inhibited at MIC,Enterobacter aerogenes; >128 μg/mL,100.0%
same,Number of test isolates at MIC,Enterobacter aerogenes; >128 μg/mL,1
same,% I,Pseudomonas aeruginosa,14%
same,% R,Pseudomonas aeruginosa,22%
same,% S,Pseudomonas aeruginosa,64%
same,MIC50,Pseudomonas aeruginosa,8 mg/L
same,MIC90,Pseudomonas aeruginosa,>128 mg/L
same,Mode,Pseudomonas aeruginosa,4 µg/mL
same,Cumulative percentage of isolates inhibited at MIC,Pseudomonas aeruginosa; 2 μg/mL,6.0%
same,Number of test isolates at MIC,Pseudomonas aeruginosa; 2 μg/mL,3
same,Cumulative percentage of isolates inhibited at MIC,Pseudomonas aeruginosa; 4 μg/mL,40.0%
same,Number of test isolates at MIC,Pseudomonas aeruginosa; 4 μg/mL,17
same,Cumulative percentage of isolates inhibited at MIC,Pseudomonas aeruginosa; 8 μg/mL,60.0%
same,Number of test isolates at MIC,Pseudomonas aeruginosa; 8 μg/mL,10
same,Cumulative percentage of isolates inhibited at MIC,Pseudomonas aeruginosa; 16 μg/mL,64.0%
same,Number of test isolates at MIC,Pseudomonas aeruginosa; 16 μg/mL,2
same,Cumulative percentage of isolates inhibited at MIC,Pseudomonas aeruginosa; 32 μg/mL,74.0%
same,Number of test isolates at MIC,Pseudomonas aeruginosa; 32 μg/mL,5
same,Cumulative percentage of isolates inhibited at MIC,Pseudomonas aeruginosa; 64 μg/mL,78.0%
same,Number of test isolates at MIC,Pseudomonas aeruginosa; 64 μg/mL,2
same,Cumulative percentage of isolates inhibited at MIC,Pseudomonas aeruginosa; 128 μg/mL,84.0%
same,Number of test isolates at MIC,Pseudomonas aeruginosa; 128 μg/mL,3
same,Cumulative percentage of isolates inhibited at MIC,Pseudomonas aeruginosa; >128 μg/mL,100.0%
same,Number of test isolates at MIC,Pseudomonas aeruginosa; >128 μg/mL,8
